Source: PubChem BioAssay AID328 (DTP/NCI, 2004)
Several values for one entry are separate records, joined by “and”; a condition that tells them apart may be missing. Equal values may be shown once. Inconclusive results and toxic doses are left out.

System: BDF1 mice, P388 leukemia ip, median survival T/C
Assay: NCI In Vivo Anticancer Drug Screen. Data for tumor model P388 Leukemia (intraperitoneal) in B6D2F1 (BDF1) mice
Conditions: endpoint: median survival time, higher = longer survival
Method in brief: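 Reported as T/C, where T is the survival measurement in dosed animals and C the same measurement in vehicle controls.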

[1] = dose: 0.25 mg/kg/injection, schedule: Q01DX009 (ip), vehicle: saline
[2] = dose: 0.5 mg/kg/injection, schedule: Q01DX009 (ip), vehicle: saline
[3] = dose: 25.0 mg/kg/injection, schedule: Q01DX009 (ip), vehicle: saline with Tween-80
[4] = dose: 50.0 mg/kg/injection, schedule: Q01DX009 (ip), vehicle: saline with Tween-80

## C=C(C)C12CC(COC(=O)c3ccccc3)C34OC5(OC1C3C1OC1(CO)C(O)C1(O)C(OC(=O)c3ccccc3)C(C)C(C(C)CCCCCCC5O)C14)O2 (stereo not given)
[1]
  T/C: 113 % of control
[2]
  T/C: 122 % of control
dose: 0.75 mg/kg/injection, schedule: Q01DX009 (ip), vehicle: saline
  T/C: 150 % of control
dose: 0.5 micrograms/kg/injection, schedule: Q01DX009 (ip), vehicle: saline + alcohol
  T/C: 111 % of control
dose: 0.8 micrograms/kg/injection, schedule: Q01DX009 (ip), vehicle: gum acacia
  T/C: 100 % of control
dose: 0.8 micrograms/kg/injection, schedule: Q01DX009 (ip), vehicle: saline + alcohol
  T/C: 124 % of control
dose: 0.8 micrograms/kg/injection, schedule: Q01DX009 (ip), vehicle: saline with Tween-80
  T/C: 162 % of control
dose: 1.0 micrograms/kg/injection, schedule: Q01DX009 (ip), vehicle: saline + alcohol
  T/C: 108 % of control
dose: 1.6 micrograms/kg/injection, schedule: Q01DX009 (ip), vehicle: saline + alcohol
  T/C: 238 % of control
dose: 1.6 micrograms/kg/injection, schedule: Q01DX009 (ip), vehicle: saline with Tween-80
  T/C: 175 % of control
dose: 2.0 micrograms/kg/injection, schedule: Q01DX009 (ip), vehicle: saline + alcohol
  T/C: 104 % of control
dose: 3.1 micrograms/kg/injection, schedule: Q01DX009 (ip), vehicle: saline + alcohol
  T/C: 153 % of control
dose: 3.1 micrograms/kg/injection, schedule: Q01DX009 (ip), vehicle: saline with Tween-80
  T/C: 175 % of control
dose: 6.3 micrograms/kg/injection, schedule: Q01DX009 (ip), vehicle: gum acacia
  T/C: 120 % of control
dose: 6.3 micrograms/kg/injection, schedule: Q01DX009 (ip), vehicle: saline + alcohol
  T/C: 175 % of control
dose: 12.5 micrograms/kg/injection, schedule: Q01DX009 (ip), vehicle: gum acacia
  T/C: 118 % of control
dose: 12.5 micrograms/kg/injection, schedule: Q01DX009 (ip), vehicle: saline + alcohol
  T/C: 179 % of control
dose: 25.0 micrograms/kg/injection, schedule: Q01DX009 (ip), vehicle: gum acacia
  T/C: 120 % of control
dose: 50.0 micrograms/kg/injection, schedule: Q01DX009 (ip), vehicle: gum acacia
  T/C: 124 % of control

## CC12CCC3c4ccc(OP(=O)(N5CC5)N5CC5)cc4CCC3C1CCC2O (stereo not given)
dose: 12.5 mg/kg/injection, schedule: Q01DX009 (ip), vehicle: saline with Tween-80
  T/C: 102 % of control
[3]
  T/C: 93 % of control
[4]
  T/C: 121 % of control
dose: 100.0 mg/kg/injection, schedule: Q01DX009 (ip), vehicle: saline with Tween-80
  T/C: 121 % of control

## NC(N)=NC(N)=Nc1ccc(Cl)c(Cl)c1
[3]
  T/C: 98 % of control
[4]
  T/C: 121 % of control

## Nc1ccc2nc3ccc(N)cc3[n+](-c3ccccc3)c2c1
dose: 0.12 mg/kg/injection, schedule: Q01DX009 (ip), vehicle: saline
  T/C: 100 % of control
[1]
  T/C: 110 % of control
[2]
  T/C: 110 % of control
dose: 1.0 mg/kg/injection, schedule: Q03HX024 (ip), vehicle: saline
  T/C: 150 % of control
dose: 1.13 mg/kg/injection, schedule: Q01DX009 (ip), vehicle: saline
  T/C: 116 % of control
dose: 1.56 mg/kg/injection, schedule: Q01DX009 (ip), vehicle: saline
  T/C: 113 % of control
dose: 2.0 mg/kg/injection, schedule: Q01DX009 (sc), vehicle: saline
  T/C: 108 % of control
dose: 2.0 mg/kg/injection, schedule: Q03HX024 (ip), vehicle: saline
  T/C: 155 % of control
dose: 4.0 mg/kg/injection, schedule: Q01DX009 (ip), vehicle: saline
  T/C: 153 % of control
dose: 4.0 mg/kg/injection, schedule: Q01DX009 (sc), vehicle: saline
  T/C: 103 % of control
dose: 4.0 mg/kg/injection, schedule: Q03HX016 (ip), vehicle: saline
  T/C: 153 % of control
dose: 4.0 mg/kg/injection, schedule: Q03HX024 (ip), vehicle: saline
  T/C: 156 % of control
dose: 4.0 mg/kg/injection, schedule: Q04DX003 (sc), vehicle: saline
  T/C: 101 % of control
dose: 6.0 mg/kg/injection, schedule: Q01DX009 (ip), vehicle: saline
  T/C: 166 % of control
dose: 6.25 mg/kg/injection, schedule: Q01DX009 (ip), vehicle: saline
  T/C: 154 % of control
dose: 8.0 mg/kg/injection, schedule: Q01DX009 (ip), vehicle: saline
  T/C: 155 % of control and 173 % of control
dose: 8.0 mg/kg/injection, schedule: Q01DX009 (oral), vehicle: saline
  T/C: 95 % of control
dose: 8.0 mg/kg/injection, schedule: Q01DX009 (sc), vehicle: saline
  T/C: 106 % of control
dose: 8.0 mg/kg/injection, schedule: Q04DX003 (sc), vehicle: saline
  T/C: 103 % of control
dose: 8.0 mg/kg/injection, schedule: Q08DX002 (ip), vehicle: saline
  T/C: 123 % of control
dose: 9.0 mg/kg/injection, schedule: Q01DX009 (ip), vehicle: saline
  T/C: 150 % of control
dose: 9.3 mg/kg/injection, schedule: Q01DX009 (ip), vehicle: saline
  T/C: 154 % of control
dose: 16.0 mg/kg/injection, schedule: Q01DX009 (ip), vehicle: saline
  T/C: 182 % of control
dose: 16.0 mg/kg/injection, schedule: Q01DX009 (oral), vehicle: saline
  T/C: 105 % of control
dose: 16.0 mg/kg/injection, schedule: Q01DX009 (sc), vehicle: saline
  T/C: 96 % of control
dose: 16.0 mg/kg/injection, schedule: Q04DX003 (oral), vehicle: saline
  T/C: 99 % of control
dose: 16.0 mg/kg/injection, schedule: Q04DX003 (sc), vehicle: saline
  T/C: 106 % of control
dose: 16.0 mg/kg/injection, schedule: Q08DX002 (ip), vehicle: saline
  T/C: 122 % of control
dose: 18.0 mg/kg/injection, schedule: Q01DX009 (ip), vehicle: saline
  T/C: 154 % of control and 168 % of control and 195 % of control
dose: 25.0 mg/kg/injection, schedule: Q04DX003 (ip), vehicle: saline
  T/C: 175 % of control
dose: 32.0 mg/kg/injection, schedule: Q01DX009 (oral), vehicle: saline
  T/C: 99 % of control
dose: 32.0 mg/kg/injection, schedule: Q01DX009 (sc), vehicle: saline
  T/C: 105 % of control
dose: 32.0 mg/kg/injection, schedule: Q04DX003 (ip), vehicle: saline
  T/C: 156 % of control
dose: 32.0 mg/kg/injection, schedule: Q04DX003 (oral), vehicle: saline
  T/C: 105 % of control
dose: 32.0 mg/kg/injection, schedule: Q04DX003 (sc), vehicle: saline
  T/C: 97 % of control
dose: 33.0 mg/kg/injection, schedule: Q04DX003 (ip), vehicle: saline
  T/C: 150 % of control and 170 % of control
dose: 50.0 mg/kg/injection, schedule: Q04DX003 (ip), vehicle: saline
  T/C: 175 % of control and 180 % of control
dose: 64.0 mg/kg/injection, schedule: Q01DX009 (oral), vehicle: saline
  T/C: 102 % of control
dose: 64.0 mg/kg/injection, schedule: Q04DX003 (oral), vehicle: saline
  T/C: 101 % of control
dose: 64.0 mg/kg/injection, schedule: Q04DX003 (sc), vehicle: saline
  T/C: 101 % of control
dose: 75.0 mg/kg/injection, schedule: Q04DX003 (ip), vehicle: saline
  T/C: 165 % of control
dose: 128.0 mg/kg/injection, schedule: Q01DX009 (oral), vehicle: saline
  T/C: 107 % of control
dose: 128.0 mg/kg/injection, schedule: Q04DX003 (oral), vehicle: saline
  T/C: 101 % of control
dose: 256.0 mg/kg/injection, schedule: Q04DX003 (oral), vehicle: saline
  T/C: 100 % of control

## O=C(c1c(F)c(F)c(F)c(F)c1F)N1CC1
dose: 25.0 mg/kg/injection, schedule: Q01DX009 (ip), vehicle: water
  T/C: 106 % of control
dose: 25.0 mg/kg/injection, schedule: Q04DX003 (ip), vehicle: water
  T/C: 104 % of control
dose: 50.0 mg/kg/injection, schedule: Q01DX009 (ip), vehicle: water
  T/C: 111 % of control
dose: 50.0 mg/kg/injection, schedule: Q04DX003 (ip), vehicle: water
  T/C: 91 % of control
dose: 100.0 mg/kg/injection, schedule: Q01DX009 (ip), vehicle: water
  T/C: 111 % of control
dose: 100.0 mg/kg/injection, schedule: Q04DX003 (ip), vehicle: water
  T/C: 106 % of control
dose: 200.0 mg/kg/injection, schedule: Q01DX009 (ip), vehicle: water
  T/C: 97 % of control
dose: 200.0 mg/kg/injection, schedule: Q04DX003 (ip), vehicle: water
  T/C: 106 % of control
dose: 400.0 mg/kg/injection, schedule: Q01DX009 (ip), vehicle: water
  T/C: 100 % of control
dose: 400.0 mg/kg/injection, schedule: Q04DX003 (ip), vehicle: water
  T/C: 100 % of control

## COc1ccc(C(=O)NN2C(N)=NC(N)=NC2(C)C)cc1
dose: 50.0 mg/kg/injection, schedule: Q04DX003 (ip), vehicle: saline sonified
  T/C: 100 % of control
dose: 100.0 mg/kg/injection, schedule: Q04DX003 (ip), vehicle: saline sonified
  T/C: 100 % of control
dose: 200.0 mg/kg/injection, schedule: Q04DX003 (ip), vehicle: saline sonified
  T/C: 105 % of control

## CCC(C)C(NC(=O)CCN)C(=O)O (stereo not given)
dose: 50.0 mg/kg/injection, schedule: Q01DX005 (ip), vehicle: saline
  T/C: 104 % of control
dose: 100.0 mg/kg/injection, schedule: Q01DX005 (ip), vehicle: saline
  T/C: 103 % of control
dose: 200.0 mg/kg/injection, schedule: Q01DX005 (ip), vehicle: saline
  T/C: 100 % of control
